Measured values taken from the NIST ThermoML archive (doi:10.1016/j.fluid.2012.05.007).
± gives the expanded uncertainty stated by the source.

Assays:
[1] = wn = mass fraction of the nth substance listed; conditions: for viscosity / mass density: 101 kPa, Liquid; for viscosity: Capillary tube (Ostwald / Ubbelohde) method; for mass density: Pycnometric method; for surface tension liquid-gas: Pendant drop shape
[2] = mn = molality of the nth substance listed, in mol/kg; conditions: for surface tension liquid-gas: Pendant drop shape; for viscosity / mass density: 101 kPa, Liquid; for viscosity: Capillary tube (Ostwald / Ubbelohde) method; for mass density: Pycnometric method
[3] = 288.15 K

CN(CCO)CCO [N-methyldiethanolamine] + O
[1]
Conditions	mass density, 288.15 K [kg/m3]	mass density, 313.15 K [kg/m3]	surface tension liquid-gas, 313.15 K [mN/m]	viscosity, 288.15 K [mPa·s]	viscosity, 313.15 K [mPa·s]
w1 = 0.1	1007.1 ± 1	1001.1 ± 1	58.71 ± 2.1	1.711 ± 0.02	0.905 ± 0.011
w1 = 0.2	1017.5 ± 1	1008.1 ± 1	54.68 ± 1.9	2.631 ± 0.03	1.312 ± 0.016

O=C([O-])CC(O)(CC(=O)[O-])C(=O)[O-].[K+].[K+].[K+] [potassium citrate] + O
[2]
Conditions	mass density, 293.15 K [kg/m3]	mass density, 303.15 K [kg/m3]	mass density, 313.15 K [kg/m3]	mass density, 323.15 K [kg/m3]	surface tension liquid-gas, 293.15 K [mN/m]	viscosity, 293.15 K [mPa·s]	viscosity, 303.15 K [mPa·s]	viscosity, 313.15 K [mPa·s]	viscosity, 323.15 K [mPa·s]
m1 = 0.45	1117.7 ± 1.2	1112.9 ± 1.2	1107.8 ± 1.2	1104.3 ± 1.2	71.49 ± 2.5	1.342 ± 0.016	1.05 ± 0.012	0.845 ± 0.01	0.695 ± 0.008
m1 = 0.83	1201.1 ± 1.3	1197.2 ± 1.3	1193.4 ± 1.3	1190.3 ± 1.3	75.75 ± 2.6	1.891 ± 0.022	1.448 ± 0.017	1.127 ± 0.013	0.925 ± 0.011
m1 = 1.16	1294.6 ± 1.4	1282.5 ± 1.4	1274.6 ± 1.4	1263.7 ± 1.4	79.08 ± 2.8	2.933 ± 0.035	2.205 ± 0.026	1.644 ± 0.019	1.291 ± 0.015
m1 = 1.48	1355.7 ± 1.4	1343.2 ± 1.4	1331.9 ± 1.4	1322.8 ± 1.4	81.1 ± 2.8	4.989 ± 0.058	3.56 ± 0.042	2.597 ± 0.031	1.986 ± 0.024

O [water]
Conditions	surface tension liquid-gas [mN/m]
[3], Pendant drop shape	75.16 ± 2.6

Conditions	viscosity [mPa·s]
[3], 101 kPa, Liquid, Capillary tube (Ostwald / Ubbelohde) method	1.144 ± 0.013
